Species on record: Rattus norvegicus
Assay: Open TG-GATES - Regimen: Single
Assay type: toxicity, organism-based, Sprague-Dawley
Design: regimen Single, gender Male, age 6 weeks
Settings: in vivo, po, route gavage; for KIDNEY_L / KIDNEY_R / KIDNEY_TOTAL: tissue Kidney; for LIVER: tissue Liver
[1] = 100 mg/kg, 3 h, tissue Blood, dose level Low
[2] = 100 mg/kg, 3 h, tissue Plasma, dose level Low
[3] = 100 mg/kg, 6 h, tissue Blood, dose level Low
[4] = 100 mg/kg, 6 h, tissue Plasma, dose level Low

## COC(=O)C1=C(C)NC(C)=C(C(=O)OC)C1c1ccccc1[N+](=O)[O-] [NIFEDIPINE]
0 mg/kg, 24 h, tissue Plasma, dose level Control
  gamma-GTP: 1 IU/L
100 mg/kg, 3 h, dose level Low
  TERMINAL_BW: 201.3 g
  KIDNEY_L: 0.9 g
  KIDNEY_R: 0.9 g
  KIDNEY_TOTAL: 1.8 g
  LIVER: 7.9 g
[1]
  Bas: 0%
  Eos: 1%
  Fbg: 279.6 mg/dL
  Hb: 12.9 g/dL
  Ht: 39.2%
  Lym: 71.8%
  MCH: 20.6 pg
  MCHC: 32.8%
  MCV: 62.6 fL
  Mono: 4.4%
  PT: 14.9 s
  Plat: 123.6 x10_4/uL
  RBC: 625.8 x10_4/ul
  Ret: 9.3%
  WBC: 127.1 x10_2/uL
[2]
  ALP: 1399 IU/L
  ALT: 44.8 IU/L
  AST: 78.6 IU/L
  CRE: 0.3 mg/dL
  Ca: 11.7 mg/dL
  Cl: 98.2 meq/L
  DBIL: 0.01 mg/dL
  GLC: 227.6 mg/dL
  IP: 9 mg/dL
  K: 4.7 meq/L
  LDH: 89.4 IU/L
  Na: 135.6 meq/L
  PL: 132 mg/dL
  RALB: 2.5 g/dL
  TBIL: 0.042 mg/dL
  TC: 76.2 mg/dL
  TG: 31.6 mg/dL
  TP: 5.3 g/dL
  gamma-GTP: 1.2 IU/L
100 mg/kg, 6 h, dose level Low
  TERMINAL_BW: 203.8 g
  KIDNEY_L: 0.9 g
  KIDNEY_R: 0.9 g
  KIDNEY_TOTAL: 1.7 g
  LIVER: 7.8 g
[3]
  APTT: 16.8 s
  Bas: 0%
  Eos: 0.4%
  Fbg: 278.2 mg/dL
  Hb: 12.8 g/dL
  Ht: 39.2%
  Lym: 76.2%
  MCH: 20.2 pg
  MCHC: 32.6%
  MCV: 61.7 fL
  Mono: 3.6%
  Neu: 18.6%
  PT: 15 s
  Plat: 124 x10_4/uL
  RBC: 634.8 x10_4/ul
  Ret: 9.2%
  WBC: 96.4 x10_2/uL
[4]
  ALP: 1423.2 IU/L
  ALT: 54.6 IU/L
  AST: 82.2 IU/L
  BUN: 32.4 mg/dL
  CRE: 0.2 mg/dL
  Ca: 11.3 mg/dL
  Cl: 98.6 meq/L
  DBIL: 0.01 mg/dL
  GLC: 220.6 mg/dL
  IP: 10.7 mg/dL
  K: 5.2 meq/L
  LDH: 72.8 IU/L
  Na: 135.8 meq/L
  PL: 141.2 mg/dL
  RALB: 2.6 g/dL
  TBIL: 0.042 mg/dL
  TC: 86.4 mg/dL
  TG: 20.8 mg/dL
  TP: 5.5 g/dL
  gamma-GTP: 1.2 IU/L
100 mg/kg, 9 h, dose level Low
  TERMINAL_BW: 204.8 g

Reference: ChEMBL document CHEMBL3885861, “Open TG-GATES”
